Laboratory results reported in PMC8151276, “An Integrated Approach toward NanoBRET Tracers for Analysis of GPCR Ligand Engagement” (Molecules, 2021).

Columns and labels:
HTR2B = biological target: T1, HTR2B (Homo sapiens, UniProt P41595); experiment: NanoBRET screen HiBiT-HTR2B in HEK293; type: binding
T1 construct: purchased Promega (in-house HiBiT-GPCR construct library, NanoBRET)
Experimental: (§1) Each tracer candidate was screened across the entire library of HiBiT-GPCR constructs using NanoBRET as the detection modality. As depicted in Figure 4A, the specificity of interactions was evaluated through decrease in BRET due to competitive displacement of a bound tracer by excess parental compound. Each tracer was analyzed for binding to each HiBiT-GPCR fusion in the absence and in the presence of competing parental compound. Briefly, HEK293 cells were transfected with HiBiT-GPCR constructs diluted into promoterless DNA to reduce expression and maximize translocation to the cell surface. Each tracer candidate was then screened at concentrations of 1 μM and 0.1 μM across cells expressing these fusions. Cells were treated for 1.5 h with tracer either alone or in the presence of 20 μM competing parental compound (i.e., control). BRET was measured upon addition of purified LgBiT and subsequent complementation with HiBiT genetically fused to a GPCR. The specificity of interactions was assessed through a decrease in BRET signal due to competitive displacement of the bound tracer. To further gauge the robustness of these interactions, the fold response over the control (i.e., BRETtracer/BRETcontrol) was calculated. We chose a 1.5-fold response, which translates to ≥7-fold signal over noise as the minimal threshold required to score an interaction as positive.
(§2) HiBiT-GPCR DNA constructs were diluted in 10 mM Tris pH 8 to a final concentration of 0.01 μg/μL, arrayed in 96-well plates and stored at −20 °C. For transfection, HEK293 cells were suspended in Opti-MEM (without phenol red) supplemented with 2% fetal bovine serum (Seradigm) and 100 units/mL penicillin–streptomycin (Gibco) at a final concentration of 220,000 cells/mL and dispensed into white 96-well plates at 90 μL/well. Subsequent transfections and screens were carried using an Agilent Bravo Automated Liquid Handling Platform. First, the 96-well HiBiT DNA arrays were diluted 25-fold in Opti-MEM (without serum or phenol red) to a final concentration of 0.0004 μg/μL and 20 μL of the diluted DNAs were transferred into new 96-well plates. Next, promoterless carrier DNA (1 μg/μL) was diluted 25-fold (0.04 μg/μL) and then dispensed into the diluted arrays at 20 μL/well. Following brief mixing, Viafect transfection reagent (Promega) diluted 16-fold into Opti-MEM was dispensed into the plates at 40 μL/well. After mixing by pipetting, plates were incubated for 10 min on the pipetting station deck. The DNA-transfection reagent complexes were then added to plates containing cells. To facilitate the screen, 10 μL of DNA-transfection reagent complexes were added in duplicates to the top 4 and bottom 4 rows, resulting in two identical 48-well arrays per plate. Plates with transfected cells were incubated for 18–20 h at 37 °C/5% CO2. A screen of each tracer across the entire library using two different concentrations requires duplicate plates of transfected cells. Depending on the number of tracers being screened, transfections can be scaled up using the same ratios. The next day, for each tracer, four 20× screening solutions in tracer dilution buffer (Promega) were prepared: two duplicates at final concentration of 20 μM and two duplicates at a final concentration of 2 μM. […] The four resulting solutions were diluted 4-fold in Opti-MEM without serum or phenol red to generate 5× solutions (5 µM and 0.5 µM tracer +/− 100 μM competing compound). To screen the library, a BioTek MultiFlo FX liquid dispenser was used to dispense 22.5 µL of tracer solution to the top 4 rows and 22.5 µL tracer + competing compound solution to the 4 bottom rows. Plates were briefly mixed on an orbital shaker and incubated for 1.5 h at room temperature. […] Plates were briefly mixed on an orbital shaker and incubated for 15 min to allow complementation.

CHRM5 = biological target: T2, CHRM5 (Homo sapiens, UniProt P08912); experiment: NanoBRET screen HiBiT-CHRM5 in HEK293; type: binding
T2 construct: purchased Promega (in-house HiBiT-GPCR construct library, NanoBRET)
T2 sequence (P08912 1-532): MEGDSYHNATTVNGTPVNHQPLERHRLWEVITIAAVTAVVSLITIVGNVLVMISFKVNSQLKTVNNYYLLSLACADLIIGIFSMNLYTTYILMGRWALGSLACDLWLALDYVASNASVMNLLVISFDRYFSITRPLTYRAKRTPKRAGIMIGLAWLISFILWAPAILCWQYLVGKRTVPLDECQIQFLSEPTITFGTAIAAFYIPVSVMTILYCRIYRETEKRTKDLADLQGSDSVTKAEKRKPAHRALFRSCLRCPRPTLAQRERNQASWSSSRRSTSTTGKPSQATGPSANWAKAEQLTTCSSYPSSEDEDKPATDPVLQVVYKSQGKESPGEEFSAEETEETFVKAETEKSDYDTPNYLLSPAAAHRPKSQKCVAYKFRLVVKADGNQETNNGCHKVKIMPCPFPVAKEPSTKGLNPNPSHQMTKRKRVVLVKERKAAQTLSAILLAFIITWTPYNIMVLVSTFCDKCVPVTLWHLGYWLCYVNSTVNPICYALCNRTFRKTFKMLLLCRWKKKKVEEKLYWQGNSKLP
Experimental: as §1, §2

[1] = tracer at 0.1μM, listed as amitriptyline-b-2-NB590
[2] = tracer at 1μM, listed as amitriptyline-b-2-NB590

T1 sequence (P41595 whole entry): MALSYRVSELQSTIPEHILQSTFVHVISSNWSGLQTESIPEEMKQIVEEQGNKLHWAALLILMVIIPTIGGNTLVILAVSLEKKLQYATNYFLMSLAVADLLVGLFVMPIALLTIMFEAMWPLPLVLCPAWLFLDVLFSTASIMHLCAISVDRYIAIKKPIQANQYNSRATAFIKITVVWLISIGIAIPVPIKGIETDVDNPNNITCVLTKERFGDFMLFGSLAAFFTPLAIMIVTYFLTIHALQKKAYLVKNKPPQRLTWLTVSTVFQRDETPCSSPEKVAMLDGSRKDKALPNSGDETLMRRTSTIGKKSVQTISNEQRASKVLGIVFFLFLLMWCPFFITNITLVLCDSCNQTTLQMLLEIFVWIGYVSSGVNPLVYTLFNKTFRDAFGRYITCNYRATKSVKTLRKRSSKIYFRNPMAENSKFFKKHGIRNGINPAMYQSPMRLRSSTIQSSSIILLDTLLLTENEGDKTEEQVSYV

Structure (SMILES) | NanoBRET Fold Response (HTR2B; HTR2B, tracer 0.1μM) | NanoBRET Fold Response (HTR2B; HTR2B, tracer 1μM) | NanoBRET Fold Response (CHRM5; CHRM5, tracer 0.1μM) | NanoBRET Fold Response (CHRM5; CHRM5, tracer 1μM) | also measured
CCOC(=O)c1cc(C#N)c(N2CCC(C(=O)NS(=O)(=O)Cc3ccccc3/C=C/C(=O)NCCNC(=O)CCc3ccc4n3[B-](F)(F)[N+]3=C(c5ccc[nH]5)C=CC3=C4)CC2)nc1C [AZD1283-1-NB590] |  |  |  |  | NanoBRET Fold Response (HTR2B; HTR2B, 0.1μM): 1.31; NanoBRET Fold Response (HTR2B; HTR2B, 1μM): 1.15; NanoBRET Fold Response (CHRM5; CHRM5, 0.1μM): 1.08; NanoBRET Fold Response (CHRM5; CHRM5, 1μM): 1.08
N#CN/C(=N\CCNC(=O)c1ccc(N)cc1)NCCCOc1cccc(CN2CCCCC2)c1 [Aminopotentidine (unmodified)] |  |  |  |  | NanoBRET Fold Response (HTR2B; HTR2B, other tracers/Aminopotentidine (unmodified), 0.1μM): 1.03; NanoBRET Fold Response (HTR2B; HTR2B, other tracers/Aminopotentidine (unmodified), 1μM): 0.97
N#CN=C(NCCCOc1cccc(CN2CCCCC2)c1)NCCNC(=O)CCOCCOCCOCCOCCNC(=O)CCc1ccc2n1[B-](F)(F)[N+]1=C(c3ccc[nH]3)C=CC1=C2 [Aminopotentidine-2-NB590] | 0.90 | 0.91 | 1.02 | 1.10 | 
CN(C)CCC=C1c2ccccc2CCc2ccc(C(=O)NCCNC(=O)CCOCCOCCOCCOCCNC(=O)CCc3ccc4n3[B-](F)(F)[N+]3=C(c5ccc[nH]5)C=CC3=C4)cc21 [Amitriptyline-a-2-NB590] |  |  |  |  | NanoBRET Fold Response (HTR2B; tracer at 0.1μM): 0.98; NanoBRET Fold Response (HTR2B; tracer at 1μM): 1.09; NanoBRET Fold Response (CHRM5; tracer at 1μM): 1.23
CN(C)CCC=C1c2ccccc2CCc2ccc(C(=O)NCCNC(=O)CCOCCOCCOCCOCCNC(=O)CCc3ccc4n3[B-](F)(F)[N+]3=C(c5ccc[nH]5)C=CC3=C4)cc21 [Amitriptyline-b-2-NB590] |  |  |  |  | NanoBRET Fold Response (HTR2B; [1]): 1.05; NanoBRET Fold Response (HTR2B; [2]): 0.74; NanoBRET Fold Response (CHRM5; [1]): 3.47; NanoBRET Fold Response (CHRM5; [2]): 4.23
CN(CCC=C1c2ccccc2CCc2ccccc21)C(=O)CCOCCOCCOCCOCCNC(=O)CCc1ccc2n1[B-](F)(F)[N+]1=C(c3ccc[nH]3)C=CC1=C2 [Amitriptyline-e-2-NB590] |  |  |  |  | NanoBRET Fold Response (HTR2B; tracer at 1μM): 1.02; NanoBRET Fold Response (CHRM5; tracer at 1μM): 1.14
COc1ccc2c(n1)c(CCNC(C)=O)cn2CCNC(=O)CCc1ccc2n1[B-](F)(F)[N+]1=C(c3ccc[nH]3)C=CC1=C2 [Azamelatonin-1-NB590] |  |  |  |  | NanoBRET Fold Response (HTR2B; 0.1μM tracer): 0.98; NanoBRET Fold Response (HTR2B; 1μM tracer): 0.98; NanoBRET Fold Response (CHRM5; 0.1μM tracer): 0.89; NanoBRET Fold Response (CHRM5; 1μM tracer): 1.23
COc1ccc2[nH]c(-c3ccc(CNC(=O)CCOCCOCCOCCOCCNC(=O)CCc4ccc5n4[B-](F)(F)[N+]4=C(c6ccc[nH]6)C=CC4=C5)cc3)c(CCNC(C)=O)c2n1 [AzomelatoninICO9-2-NB590] |  |  |  |  | NanoBRET Fold Response (HTR2B; 0.1μM tracer): 0.81; NanoBRET Fold Response (HTR2B; 1μM tracer): 1.08; NanoBRET Fold Response (CHRM5; 0.1μM tracer): 0.90; NanoBRET Fold Response (CHRM5; 1μM tracer): 0.97
O=C(CCOCCOCCOCCOCCNC(=O)CCc1ccc2n1[B-](F)(F)[N+]1=C(c3ccc[nH]3)C=CC1=C2)NCCCN1CCN(C2=Nc3cc(Cl)ccc3Nc3ccccc32)CC1 [Clozapine-a-2-NB590] |  |  |  |  | NanoBRET Fold Response (HTR2B; HTR2B, 0.1μM tracer): 1.08; NanoBRET Fold Response (HTR2B; HTR2B, 1μM tracer): 1.14; NanoBRET Fold Response (CHRM5; CHRM5, 0.1μM tracer): 1.10; NanoBRET Fold Response (CHRM5; CHRM5, 1μM tracer): 0.91
CN1CCN(C2=Nc3cc(Cl)ccc3Nc3ccc(CNC(=O)CCOCCOCCOCCOCCNC(=O)CCc4ccc5n4[B-](F)(F)[N+]4=C(c6ccc[nH]6)C=CC4=C5)cc32)CC1 [Clozapine-b-2-NB590] |  |  |  |  | NanoBRET Fold Response (CHRM5; CHRM5, 0.1μM tracer): 1.00
CN1CCN(C2=Nc3cc(Cl)ccc3N(CC(=O)NCCOCCOCCOCCOCCNC(=O)CCc3ccc4n3[B-](F)(F)[N+]3=C(c5ccc[nH]5)C=CC3=C4)c3ccccc32)CC1 [Clozapine-c-2-NB590] |  |  |  |  | NanoBRET Fold Response (CHRM5; CHRM5, 0.1μM tracer): 1.00; NanoBRET Fold Response (CHRM5; CHRM5, 1μM tracer): 0.86
O=C(CCOCCOCCOCCOCCNC(=O)CCc1ccc2n1[B-](F)(F)[N+]1=C(c3ccc[nH]3)C=CC1=C2)NCCCN1CCN(C2=Nc3ccccc3Oc3ccc(Cl)cc32)CC1 [Loxapine-a-2-NB590] | 1.04 | 1.25 | 0.99 | 0.89 | 
COc1ccccc1N1CCN(CCCCN2C(=O)c3ccc(CNC(=O)CCOCCOCCOCCOCCNC(=O)CCc4ccc5n4[B-](F)(F)[N+]4=C(c6ccc[nH]6)C=CC4=C5)cc3C2=O)CC1 [NAN-190-2-NB590] | 0.92 |  | 0.90 |  | 
COc1ccccc1N1CCN(CCCCN2C(=O)c3ccc(CNC(=O)CCOCCNC(=O)c4ccc(CNC(=O)CCc5ccc6n5[B-](F)(F)[N+]5=C(c7ccc[nH]7)C=CC5=C6)cc4)cc3C2=O)CC1 [NAN-190-3-NB590] | 0.92 | 0.80 | 1.00 | 1.24 | 
O=C(CCc1ccc2n1[B-](F)(F)[N+]1=C(c3ccc[nH]3)C=CC1=C2)NCc1ccc(C(=O)NCCOCCC(=O)N[C@@H]2CC[C@@]3(O)[C@H]4Cc5ccc(O)c6c5[C@@]3(CCN4CC3CC3)[C@H]2O6)cc1 [Naltrexone-3-NB590] | 1.13 | 0.98 | 1.18 | 0.79 | 
Cc1cc2c(s1)Nc1ccccc1N=C2N1CCN(CCCNC(=O)CCOCCOCCOCCOCCNC(=O)CCc2ccc3n2[B-](F)(F)[N+]2=C(c4ccc[nH]4)C=CC2=C3)CC1 [Olanzapine-a-2-NB590] | 1.12 | 1.36 | 1.05 | 1.00 | 
O=C(CCc1ccc2n1[B-](F)(F)[N+]1=C(c3ccc[nH]3)C=CC1=C2)NCc1ccc(C(=O)NCCOCCOCCNCC(O)COc2cccc3ccccc23)cc1 (centres unmarked) [Propranolol-3-NB590] |  |  |  |  | NanoBRET Fold Response (HTR2B; HTR2B, 0.1μM): 1.13; NanoBRET Fold Response (HTR2B; HTR2B, 1μM): 1.00; NanoBRET Fold Response (CHRM5; CHRM5, 0.1μM): 1.00; NanoBRET Fold Response (CHRM5; CHRM5, 1μM): 1.03
O=C(CCc1ccc2n1[B-](F)(F)[N+]1=C(c3ccc[nH]3)C=CC1=C2)NCCOCCOCCNC(=O)OCCOCCN1CCN(C2=Nc3ccccc3Sc3ccccc32)CC1 [Quetiapine-a-2-NB590] | 1.51 | 1.14 | 1.18 | 1.36 | 
Cc1nc2n(c(=O)c1CCN1CCC(c3noc4cc(F)ccc34)CC1)CCCC2OC(=O)NCCOCCOCCOCCOCCNC(=O)CCc1ccc2n1[B-](F)(F)[N+]1=C(c3ccc[nH]3)C=CC1=C2 (centres unmarked) [Risperidone-2-NB590] | 1.03 | 1.32 | 1.07 | 0.95 | 
CC(C)N(CC[C@H](c1ccccc1)c1cc(CCNC(=O)CCOCCOCCOCCOCCNC(=O)CCc2ccc3n2[B-](F)(F)[N+]2=C(c4ccc[nH]4)C=CC2=C3)ccc1O)C(C)C [Tolterodine-2-NB590] | 0.68 | 0.81 | 3.27 | 2.82 | 
